# Data as given in patent US5112382A, “Halopropargyl compounds, compositions, uses and processes of preparation” (Rohm and Haas Company, priority 1990, dated 1992).
# Like-named read-outs stand apart in the source and are kept apart here.
# How the values were obtained:
# Xanthomonas campestris = test: In-vitro plant fungicide test, XAN; assay type: cell-based; conditions: read-out: % Control; for inhibition of growth at 50 ppm: rate 50 PPM
# Rhizoctonia solani = test: In-vitro plant fungicide test, RHI; assay type: cell-based; conditions: read-out: % Control; for inhibition of growth at 25 ppm: rate 25 PPM; for inhibition of growth at 50 ppm: rate 50 PPM
# Phytophthora capsici = test: In-vitro plant fungicide test, PHY; assay type: cell-based; conditions: read-out: % Control; for inhibition of growth at 25 ppm: rate 25 PPM; for inhibition of growth at 50 ppm: rate 50 PPM
# [1] = tested on: Erysiphe graminis (f. sp. tritici); test: whole plant or invertebrate; assay type: in vivo; conditions: Blumeria graminis
# Aureobasidium pullulans = test: MIC, broth two-fold serial dilution test, Apul; assay type: cell-based; conditions: read-out: Minimum Inhibitory Concentration (MIC)
# Procedure: (§1) A minimum inhibitory concentration (MIC) value is obtained using a broth, two-fold serial dilution test performed as follows: […] A volume of the stock solution is dispensed into culture media to give an initial starting test concentration of 500 ppm compound. The test is carried out by adding and equal volume of broth to each vessel in the dilution series, except for the first vessel. The first vessel contains twice the volume of broth plus the initial concentration of test compound. One half of the broth from the first vessel is transferred to the second vessel. After being mixed, one half the resulting volume is removed from the second vessel and transferred to the third vessel. The entire cycle is repeated sufficiently to give a series of concentrations amounting to 500, 250, 125, 63, 31, 16, 8, and 4 ppm (or 100, 50, 25, 12.5, 6.2, 3.1, 1.6, and 0.8), respectively. Each vessel is then inoculated with a cell suspension of the appropriate test organism. Bacteria are grown in both and fungi on agar slats for a time and at a temperature appropriate to the species being tested. At the end of the growth period, the broth is vortexed to disperse the cells. In the case of fungi, the pores are harvested by pipetting water onto the slant and dislodging the spores with a sterile loop. The cell/spore suspension is standardized by controlling incubation time, temperature, and the volume of the diluent. The suspension is then used to inoculate the vessels containing the broth compound. The vessels are then incubated at the appropriate temperature. After the incubation, the vessels are examined for growth/no growth. The minimum inhibitory concentration (MIC) is defined as the lowest concentration of compound that results in complete inhibition of growth of the test organism.
# Escherichia coli = test: MIC, broth two-fold serial dilution test, Ecol; assay type: cell-based; conditions: read-out: Minimum Inhibitory Concentration (MIC)
# Procedure: as §1
# Botrytis cinerea = test: In-vitro plant fungicide test, BOC; conditions: read-out: % Control
# Staphylococcus aureus = test: MIC, broth two-fold serial dilution test, Saur; assay type: cell-based; conditions: read-out: Minimum Inhibitory Concentration (MIC)
# Procedure: as §1
# Piricularia oryzae [2] = test: whole plant or invertebrate; assay type: in vivo; conditions: Pyricularia oryzae, 192 h, read-out: % Control
# Pythium ultimum = test: In-vitro plant fungicide test, PYU; assay type: cell-based; conditions: Globisporangium ultimum, read-out: % Control; for inhibition of growth at 25 ppm: rate 25 PPM; for inhibition of growth at 50 ppm: rate 50 PPM
# Pseudomonas fluorescens = test: MIC, broth two-fold serial dilution test, Psfl; assay type: cell-based; conditions: read-out: Minimum Inhibitory Concentration (MIC)
# Procedure: as §1
# Cochliobolus sativus = test: In-vitro plant fungicide test, HEL; assay type: cell-based; conditions: Bipolaris sorokiniana, read-out: % Control; for inhibition of growth at 25 ppm: rate 25 PPM; for inhibition of growth at 50 ppm: rate 50 PPM
# [3] = tested on: Pseudoperonospora cubensis; test: whole plant or invertebrate; assay type: in vivo; conditions: in Cucumis sativus, 168 h
# Piricularia oryzae [4] = test: microbe, parasite or virus in culture; assay type: cell-based; conditions: read-out: % Control
# [5] = tested on: Puccinia recondita (f. sp. tritici Races PKB and PLD); test: whole plant or invertebrate; assay type: in vivo; conditions: 240 h
# Aspergillus niger = test: MIC, broth two-fold serial dilution test, Anig; assay type: cell-based; conditions: read-out: Minimum Inhibitory Concentration (MIC)
# Procedure: as §1
# Fusarium roseum = test: microbe, parasite or virus in culture; conditions: Fusarium sambucinum, read-out: % Control
# Pseudomonas aerugenosa = test: MIC, broth two-fold serial dilution test, Psae; assay type: cell-based; conditions: read-out: Minimum Inhibitory Concentration (MIC)
# Procedure: as §1
# [6] = tested on: Septoria glume blotch of wheat; test: whole plant or invertebrate; assay type: in vivo; conditions: Triticum aestivum
# Septoria nodorum = test: In-vitro plant fungicide test, SEP; assay type: cell-based; conditions: Parastagonospora nodorum, read-out: % Control; for inhibition of growth at 25 ppm: rate 25 PPM; for inhibition of growth at 50 ppm: rate 50 PPM
# Phytophthora infestans = test: whole plant or invertebrate; assay type: in vivo; conditions: in Solanum lycopersicum, 96 h, read-out: % Control
SMILES,inhibition of growth at 25 ppm (Rhizoctonia solani) [%],inhibition of growth at 25 ppm (Phytophthora capsici) [%],pest or weed control at 200 ppm [1] [%],MIC (Aureobasidium pullulans) [µg/mL],MIC (Escherichia coli) [µg/mL],inhibition of growth at 25 ppm (Botrytis cinerea) [%],MIC (Staphylococcus aureus) [µg/mL],pest or weed control at 200 ppm (Piricularia oryzae [2]) [%],inhibition of growth at 25 ppm (Pythium ultimum) [%],MIC (Pseudomonas fluorescens) [µg/mL],inhibition of growth at 25 ppm (Cochliobolus sativus) [%],pest or weed control at 200 ppm [3] [%],inhibition of growth at 25 ppm (Piricularia oryzae [4]) [%],pest or weed control at 200 ppm [5] [%],MIC (Aspergillus niger) [µg/mL],inhibition of growth at 25 ppm (Fusarium roseum) [%],MIC (Pseudomonas aerugenosa) [µg/mL],pest or weed control at 200 ppm [6] [%],inhibition of growth at 25 ppm (Septoria nodorum) [%],pest or weed control at 200 ppm (Phytophthora infestans) [%],further results
"COC(=O)N(CC#CI)N=Cc1cc(Cl)cc(Cl)c1 [Compound 15, N'-Methoxycarbonyl-N'-3-iodopropargyl 3,5-dichlorobenzaldehyde hydrazone]",75,0,0,> 100,> 100,0,> 100,0,0,> 100,50,0,100,0,> 100,75,> 100,0,0,0,"inhibition of growth at 25 ppm (Xanthomonas campestris; XAN, rate 25 PPM): 0%"
"CCOC(=O)N(CC#CI)N=Cc1ccc(Cl)c(Cl)c1 [Compound 13, N'-Ethoxycarbonyl-N'-3-iodopropargyl 3,4-dichlorobenzaldehyde hydrazone]",90,0,50,> 100,> 100,0,> 100,0,0,> 100,50,85,100,50,100,75,> 100,0,50,0,"inhibition of growth at 25 ppm (Xanthomonas campestris; XAN, rate 25 PPM): 0%"
"COC(=O)N(CC#CBr)N=Cc1cc(Cl)cc(Cl)c1 [Compound 16, N'-Methoxycarbonyl-N'-3-bromopropargyl 3,5-dichlorobenzaldehyde hydrazone]",0,0,0,> 100,> 100,0,> 100,0,0,> 100,0,0,0,0,> 100,0,> 100,0,0,0,"inhibition of growth at 25 ppm (Xanthomonas campestris; XAN, rate 25 PPM): 0%"
"COC(=O)N(CC#CI)N=Cc1ccc(F)cc1 [Compound 10, N'-Methoxycarbonyl-N'-3-iodopropargyl 4-fluorobenzaldehyde hydrazone]",,,50,< 4,> 500,,< 4,50,,> 500,,50,,0,< 4,,> 500,0,,0,inhibition of growth at 50 ppm (Xanthomonas campestris; XAN): 0%; inhibition of growth at 50 ppm (Rhizoctonia solani): 100%; inhibition of growth at 50 ppm (Phytophthora capsici): 100%; inhibition of growth at 50 ppm (Botrytis cinerea): 0%; inhibition of growth at 50 ppm (Pythium ultimum): 100%; inhibition of growth at 50 ppm (Cochliobolus sativus): 100%; inhibition of growth at 50 ppm (Piricularia oryzae [4]): 100%; inhibition of growth at 50 ppm (Fusarium roseum): 100%; inhibition of growth at 50 ppm (Septoria nodorum): 100%
"CCOC(=O)N(CC#CBr)N=Cc1ccc(Cl)c(Cl)c1 [Compound 14, N'-Ethoxycarbonyl-N'-3-bromopropargyl 3,4-dichlorobenzaldehyde hydrazone]",50,0,85,> 100,> 100,0,> 100,0,0,> 100,0,0,0,0,> 100,0,> 100,0,0,0,"inhibition of growth at 25 ppm (Xanthomonas campestris; XAN, rate 25 PPM): 0%"
"COC(=O)N(CC#CBr)N=Cc1ccc(F)cc1 [Compound 7, N'-Methoxycarbonyl-N'-3-bromopropargyl 4-fluorobenzaldehyde hydrazone]",0,0,0,31,125,0,63,0,0,125,0,0,0,0,31,0,31,0,100,0,inhibition of growth at 50 ppm (Xanthomonas campestris; XAN): 0%; inhibition of growth at 25 ppm (Xanthomonas campestris): 0%; inhibition of growth at 50 ppm (Rhizoctonia solani): 0%; inhibition of growth at 50 ppm (Phytophthora capsici): 90%; inhibition of growth at 50 ppm (Botrytis cinerea): 0%; inhibition of growth at 50 ppm (Pythium ultimum): 100%; inhibition of growth at 50 ppm (Cochliobolus sativus): 0%; inhibition of growth at 50 ppm (Piricularia oryzae [4]): 90%; inhibition of growth at 50 ppm (Fusarium roseum): 0%; inhibition of growth at 50 ppm (Septoria nodorum): 0%
